{"source": "patent US20150329864A1", "about": "“DESIGN OF OLIGONUCLEOTIDE ANALOGS AS THERAPEUTIC AGENTS” (SPRING BANK PHARMACEUTICALS, INC., priority 2010, published 2015)", "key": {"[1]": {"tested_on": "EEEH protein", "experiment": "EEEH expression in woodchucks after sublingual administration", "type": "in vivo", "details": "following absorption by the sublingual route", "method": "Compound 5 was administered by sublingual route to woodchucks, at a dose of […] in Transcutol, and blood was drawn periodically for analysis. Test results are provided in Tables 4 and 5 and FIG. 3 and FIG. 4."}, "[2]": {"molecular_target": "T1, RIG-I (Homo sapiens, UniProt O95786)", "T1 sequence (O95786 1-925)": "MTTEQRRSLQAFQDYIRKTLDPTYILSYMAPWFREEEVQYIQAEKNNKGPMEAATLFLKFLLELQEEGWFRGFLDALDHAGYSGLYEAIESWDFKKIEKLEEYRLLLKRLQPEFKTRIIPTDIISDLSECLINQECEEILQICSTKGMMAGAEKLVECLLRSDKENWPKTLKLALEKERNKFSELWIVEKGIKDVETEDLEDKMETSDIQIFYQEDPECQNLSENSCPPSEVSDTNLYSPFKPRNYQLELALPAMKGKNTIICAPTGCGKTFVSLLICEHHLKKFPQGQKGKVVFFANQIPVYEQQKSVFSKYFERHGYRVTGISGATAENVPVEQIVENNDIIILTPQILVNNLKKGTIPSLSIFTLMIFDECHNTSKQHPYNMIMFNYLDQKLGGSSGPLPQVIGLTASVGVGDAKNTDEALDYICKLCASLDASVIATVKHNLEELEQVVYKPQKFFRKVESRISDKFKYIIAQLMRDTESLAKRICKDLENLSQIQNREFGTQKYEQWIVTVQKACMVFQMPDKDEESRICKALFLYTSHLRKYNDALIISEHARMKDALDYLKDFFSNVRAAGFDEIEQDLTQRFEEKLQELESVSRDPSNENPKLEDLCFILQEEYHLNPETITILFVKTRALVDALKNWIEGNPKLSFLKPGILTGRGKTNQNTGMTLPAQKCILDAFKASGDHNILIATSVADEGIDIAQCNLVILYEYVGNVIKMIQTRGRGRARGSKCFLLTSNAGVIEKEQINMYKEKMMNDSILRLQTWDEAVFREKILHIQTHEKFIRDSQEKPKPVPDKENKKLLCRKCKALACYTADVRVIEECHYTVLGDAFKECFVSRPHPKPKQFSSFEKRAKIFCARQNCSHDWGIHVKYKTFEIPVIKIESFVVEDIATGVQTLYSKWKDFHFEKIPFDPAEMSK", "experiment": "RIG-I translocation on dsRNA, single-molecule PIFE assay", "type": "biochemical", "method": "An in vitro single-molecule fluorescence assay termed PIFE (protein induced fluorescence enhancement) was employed to monitor such movement (Myong, S. et al., Science, 323, 1070, 2009).\nFor quantitation of RIG-I translocation, Single molecule PIFE yields were estimated. Single molecule PIFE yields are obtained from several hundred molecules simultaneously, allowing statistically reliable data collection.\nThe translocation as above was carried out using different concentrations of nucleotide compound.\nA standard dsRNA (25 bp) was used as a main substrate for RIG-I translocation assay. […] The ratio between rapid (stimulated) translocation and slow translocation would be accounted for in the estimation of compound strength. In order to quantify the affinity of the compound to RIG-I or to RNA substrate, various concentrations of the compound (1-100 μM range) were used in the assay. This enabled the calculation of the association/dissociation constant for each compound, which was a useful measure to apply in cell-based evaluation of compound potency.\nThe same translocation assay was used on dsRNA, which contains […] moiety with and without the compound."}, "[3]": {"tested_on": "NOD2", "experiment": "IRF3 induction in HEK cells with or without transfected NOD2", "type": "cell-based"}, "[4]": {"tested_on": "PBMCs", "type": "cell-based"}, "[5]": {"tested_on": "human hepatitis B virus", "experiment": "Anti-HBV activity in the HBV transgenic mouse model, oral administration", "type": "in vivo, transgenic mice", "details": "for Liver HBV DNA Southern blot (pg/μg mean ± sd): p.o.", "method": "Compound 6k was evaluated for anti-HBV activity in the transgenic mouse model of HBV infection. Male transgenic mouse infected with HBV, with age ranging from 78 to 108 days were used. Compound 6k was initially evaluated at a single dose of 300 mg/kg, administered daily for 14 days by oral gavage. The compounds were administered in citric acid and adefovir dipivoxil was used as a positive control. A control group which received vehicle was used a negative control. Following the treatment, mice were sacrificed and liver tissue analyzed for HBV DNA using Southern blot analysis. The data was statistically evaluated using Kruskall-Wallis non-parametric ANOVA.\n(§1) (a) Male and female transgenic mice (founder 1.3.32) were infected with human hepatitis B virus. Following infection, animals were orally administered Compound 6k, or a placebo of 0.05 M citric acid, pH 2.0 once daily for 14 days. Dosage was 300 mg/kg/d for Compound 6k. The positive control, ADV, was administered at 10 mg/kg/d.\nas §1, with “Male” for “(a) Male”, “add,” for “acid,”, “Dosages were 100, 10.5 and 1” for “Dosage was 300”, “6K.” for “6k.”"}, "[6]": {"tested_on": "HBV WT", "experiment": "HepG2.2.15 cell-based HBV assay, wild type", "details": "Hepatitis B virus", "method": "Selected compounds were evaluated in in vitro cell-based HepG2.2.15 HBV assay.\nAntiviral analysis. For the antiviral analyses, confluent cultures of 2.2.1.5 cells were maintained on 96-well flat-bottomed tissue culture plates in RPMI1640 medium with 2% fetal bovine serum. Cultures (6 per each test concentration on two replicate plates) were treated with 9 consecutive daily doses of the test compounds. Medium was changed daily with fresh test compounds. HBV nucleic acid and protein levels were measured 24 hours after the last treatment. Extracellular (virion) HBV DNA levels were assessed by quantitative blot hybridization. Intracellular HBV DNA levels were measured by quantitative Southern blot hybridization.\nThe uptake of neutral red dye was used to determine the relative level of toxicity 24 hours following the last treatment. The absorbance of internalized dye at […] (A510) was used for the semi-quantitative analysis. Values are presented as a percentage of the average A510 values (±standard deviations) in 9 separate cultures of untreated cells maintained on the 96-well plates seeded at the same time with the identical pool of stock cells used for the antiviral analyses and maintained in an identical manner. A total of 3 cultures were treated with each concentration of the test compound."}, "[7]": {"details": "300 mg/kg/d, oral, once daily 14 days"}}, "note": "Entries after “also recorded” stand apart in the source; their conditions may differ.", "data": [{"molecule": "CO[C@H]1C(OP(=O)(S)OC[C@H]2O[C@@H](n3cnc4c(N)ncnc43)CC2O)[C@@H](CO)O[C@H]1n1ccc(=O)[nH]c1=O", "note": "(some centres unmarked) [Compound 5, 3-dApsU2′-OMe]", "values": [{"measurement": "kinetics of induction of the EEEH protein", "setting": "[1]", "value": "very rapid"}, {"measurement": "RIG-I translocation on dsRNA (activity in words)", "setting": "[2]; PIFE assay", "value": "rapid translocation on dsRNA in a dose-dependent manner; also recorded: strong activators of RIG-I translocation"}, {"measurement": "proportion of fast RIG-I translocation", "setting": "[2]; concentration increased from 5 μM up to 170 μM", "value": "corresponding increase in the proportion of fast translocation"}, {"measurement": "induction of IRF3", "setting": "[3]; HEK cells transfected with NOD2", "value": "cause induction of IRF3"}, {"measurement": "induction of IRF3", "setting": "[3]; NOD2 deficient HEK cells", "value": "failed to induce IRF3"}, {"measurement": "induction of IFN", "setting": "[4]", "value": "induction of IFN beta"}]}, {"molecule": "CO[C@H]1C(OP(=O)(OC[C@H]2O[C@@H](n3cnc4c(N)ncnc43)CC2O)SCOC(=O)OC(C)C)[C@@H](CO)O[C@H]1n1ccc(=O)[nH]c1=O", "note": "(some centres unmarked) [Compound 6k]", "values": [{"measurement": "Liver HBV DNA Southern blot (pg/μg mean ± sd)", "setting": "[5]; 1 mg/kg/d, qd × 14 d", "value": "16.4 ± 14.7 (6) pg/μg"}, {"measurement": "Liver HBV DNA Southern blot (pg/μg mean ± sd)", "setting": "[5]; 10 mg/kg/d, qd × 14 d (Table 2)", "value": "3.4 ± 4.4 (7) pg/μg"}, {"measurement": "Liver HBV DNA Southern blot (pg/μg mean ± sd)", "setting": "[5]; 100 mg/kg/d, qd × 14 d", "value": "7.2 ± 8.9 (6) pg/μg"}, {"measurement": "reduction of liver HBV DNA compared to untreated control", "setting": "[5]; 300 mg/kg daily for 14 days by oral gavage", "value": "up to 2 log"}, {"measurement": "Liver HBV RNA (log transcripts ± sd)", "setting": "[5]; [7]", "value": "10.8 ± 0.4", "unit": "log transcripts"}, {"measurement": "QPCR Liver HBV DNA (pg/μg mean ± sd)", "setting": "[5]; [7]", "value": "13.3 ± 12", "unit": "pg/µg"}, {"measurement": "Southern blot Liver HBV DNA (pg/μg mean ± sd)", "setting": "[5]; 300 mg/kg/d, oral, once daily 14 days (Table 1)", "value": "5.7 ± 3.2", "unit": "pg/µg"}, {"measurement": "Liver HBV DNA Southern blot (pg/μg mean ± sd)", "setting": "[5]; 300 mg/kg/d, qd × 14 d (Table 2)", "value": "4.8 ± 4.4 (2) pg/μg"}, {"measurement": "EC50 when administered orally to a hepatitis B transgenic mouse model", "setting": "[5]; oral", "value": "approximately 10 mg/kg"}, {"measurement": "EC50", "setting": "[6]", "value": 2.5, "unit": "µM"}, {"measurement": "EC90", "setting": "[6]", "value": 8.5, "unit": "µM"}]}]}
